Patent publication US20230053540A1, “TREATMENT OF LIVER INJURY” (Massachusetts Institute of Technology, priority 2019, published 2023)

Tested on: hepatocytes
Assay: Seq-Well scRNA-Seq of hepatocytes after APAP overdose (signature scores, DEG vs untreated)
Type: in vivo, mouse

CC(=O)Nc1ccc(O)cc1 [APAP, acetaminophen]
S100a9 pct.1 (A6): 0.399
Saa4 pct.1 (A6): 0.437
Sat1 pct.1 (A6): 0.47
Scp2 pct.1 (A6): 0.866
Sdc4 pct.1 (A6): 0.909
Sec1412 pct.1 (A6): 0.484
Selenbp2 pct.1 (A6): 0.609
Serpina1a pct.1 (A6): 0.914
Serpina3m pct.1 (A6): 0.85
Serpina3n pct.1 (A6): 0.747
Slc16a6 pct.1 (A6): 0.47
Slc22a1 pct.1 (A6): 0.36
Slc25a47 pct.1 (A6): 0.869
Slc39a14 pct.1 (A6): 0.678
Sod1 pct.1 (A6): 0.931
Sqstm1 pct.1 (A6): 0.859
Srgn pct.1 (A6): 0.284
Srxn1 pct.1 (A6): 0.821
St3gal1 pct.1 (A6): 0.473
St3gal5 pct.1 (A6): 0.706
Stat3 pct.1 (A6): 0.604
Stk40 pct.1 (A6): 0.382
Tiparp pct.1 (A6): 0.346
Tmem205 pct.1 (A6): 0.695
Tmsb4x pct.1 (A6): 0.332
Tnfrsf1a pct.1 (A6): 0.508
Tnfrsf12a pct.1 (A6): 0.623
Tra2a pct.1 (A6): 0.337
Trp53inp1 pct.1 (A6): 0.637
Ttc36 pct.1 (A6): 0.768
Ttr pct.1 (A6): 0.993
Tubb2a pct.1 (A6): 0.618
Tubb6 pct.1 (A6): 0.368
Txnrd1 pct.1 (A6): 0.838
Tyrobp pct.1 (A6): 0.189
Ubc pct.1 (A6): 0.573
Ugdh pct.1 (A6): 0.721
Ugt2b5 pct.1 (A6): 0.847
Ugt2b36 pct.1 (A6): 0.745
Uox pct.1 (A6): 0.905
Upp2 pct.1 (A6): 0.274
Uqcr11 pct.1 (A6): 0.606
Urah pct.1 (A6): 0.525
Wbp1l pct.1 (A6): 0.697
Xbp1 pct.1 (A6): 0.692
Ywhag pct.1 (A6): 0.518
mmu-mir-6240 pct.1 (A6): 0.413
mt-Co2 pct.1 (A6): 0.2
mt-Nd1 pct.1 (A6): 0.983
mt-Nd4 pct.1 (A6): 0.964
n-R5-8s1 pct.1 (A6): 0.308
2-Mar avg_logFC (A6 vs UT): −0.5599
0610005C13Rik avg_logFC (A6 vs UT): −0.4251
0610005C13Rik pct.1 (A6 vs UT): 0.427
0610007P14Rik A6logFC (A6 vs UT): −0.257
1110001J03Rik avg_logFC (A6 vs UT): −0.4328
1110001J03Rik pct.1 (A6 vs UT): 0.215
1110058L19Rik A6logFC (A6 vs UT): −0.2581
1500011K16Rik avg_logFC (A6 vs UT): −0.3296
1500011K16Rik pct.1 (A6 vs UT): 0.095
1600014C10Rik avg_logFC (A6 vs UT): −0.4982
1600014C10Rik pct.1 (A6 vs UT): 0.167
1700017B05Rik avg_logFC (A6 vs UT): 0.3307
1700017B05Rik pct.1 (A6 vs UT): 0.255
2010003K11Rik avg_logFC (A6 vs UT): 0.5884
2410015M20Rik avg_logFC (A6 vs UT): −0.4021
2410015M20Rik pct.1 (A6 vs UT): 0.344
2810007J24Rik avg_logFC (A6 vs UT): −0.9143
2810428I15Rik avg_logFC (A6 vs UT): −0.2631
2810428I15Rik pct.1 (A6 vs UT): 0.2
4931406C07Rik A6logFC (A6 vs UT): −0.2544
4931406C07Rik avg_logFC (A6 vs UT): −0.2544
4931406C07Rik pct.1 (A6 vs UT): 0.616
4932438A13Rik A6logFC (A6 vs UT): 0.2879
4932438A13Rik avg_logFC (A6 vs UT): 0.2879
4932438A13Rik pct.1 (A6 vs UT): 0.329
8430408G22Rik avg_logFC (A6 vs UT): −0.5021
2810428115Rik A6logFC (A6 vs UT): −0.2631
Aadac avg_logFC (A6 vs UT): −0.62
Aadat A6logFC (A6 vs UT): −0.3186
Aass avg_logFC (A6 vs UT): 0.4775
Abca1 avg_logFC (A6 vs UT): 0.7245
Abcb11 A6logFC (A6 vs UT): −0.2618
Abcb11 avg_logFC (A6 vs UT): −0.2618
Abcb11 pct.1 (A6 vs UT): 0.618
Abcc2 A6logFC (A6 vs UT): 0.2897
Abcd3 A6logFC (A6 vs UT): −0.2718
Abce1 A6logFC (A6 vs UT): 0.28
Abce1 avg_logFC (A6 vs UT): 0.28
Abce1 pct.1 (A6 vs UT): 0.437
Abcf1 A6logFC (A6 vs UT): 0.3032
Abcf1 avg_logFC (A6 vs UT): 0.3032
Abcf1 pct.1 (A6 vs UT): 0.458
Abcg2 A6logFC (A6 vs UT): −0.2809
Abcg2 avg_logFC (A6 vs UT): −0.2809
Abcg2 pct.1 (A6 vs UT): 0.294
Abhd2 avg_logFC (A6 vs UT): 0.4844
Acaa1a A6logFC (A6 vs UT): −0.3018
Acaa1a avg_logFC (A6 vs UT): −0.3018
Acaa1a pct.1 (A6 vs UT): 0.475
Acaa1b avg_logFC (A6 vs UT): −0.7328
Acads A6logFC (A6 vs UT): −0.3242
Acat3 A6logFC (A6 vs UT): −0.3115
Acat3 avg_logFC (A6 vs UT): −0.3115
Acat3 pct.1 (A6 vs UT): 0.427
Acot13 A6logFC (A6 vs UT): −0.2886
Acsl1 avg_logFC (A6 vs UT): −0.3434
Acsl1 pct.1 (A6 vs UT): 0.752
Acsl4 avg_logFC (A6 vs UT): 0.2985
Acsl4 pct.1 (A6 vs UT): 0.427
Acsm1 avg_logFC (A6 vs UT): −0.3692
Acsm1 pct.1 (A6 vs UT): 0.527
Acsm5 A6logFC (A6 vs UT): −0.2614
Acsm5 avg_logFC (A6 vs UT): −0.2614
Acsm5 pct.1 (A6 vs UT): 0.236
Actr3 A6logFC (A6 vs UT): 0.276
Actr3 avg_logFC (A6 vs UT): 0.276
Actr3 pct.1 (A6 vs UT): 0.36
Acy3 avg_logFC (A6 vs UT): −0.3137
Acy3 pct.1 (A6 vs UT): 0.131
Adamts1 avg_logFC (A6 vs UT): 0.2826
Adamts1 pct.1 (A6 vs UT): 0.2
Adck3 avg_logFC (A6 vs UT): −0.8761
Adh1 avg_logFC (A6 vs UT): −1.255
Adh4 avg_logFC (A6 vs UT): −0.5269
Adh5 avg_logFC (A6 vs UT): −0.4914
Adh5 pct.1 (A6 vs UT): 0.649
Adipor2 avg_logFC (A6 vs UT): −0.4738
Adipor2 pct.1 (A6 vs UT): 0.578
Aes A6logFC (A6 vs UT): −0.2642
Aes avg_logFC (A6 vs UT): −0.2642
Aes pct.1 (A6 vs UT): 0.535
Aff4 avg_logFC (A6 vs UT): 0.6163
Aff4 pct.1 (A6 vs UT): 0.537
Agmat avg_logFC (A6 vs UT): −0.4718
Agmat pct.1 (A6 vs UT): 0.339
Agpat2 A6logFC (A6 vs UT): −0.2982
Agpat9 avg_logFC (A6 vs UT): 0.327
Agxt A6logFC (A6 vs UT): −0.2584
Agxt avg_logFC (A6 vs UT): −0.2584
Agxt pct.1 (A6 vs UT): 0.601
Akap13 avg_logFC (A6 vs UT): 0.4953
Akap13 pct.1 (A6 vs UT): 0.406
Akr1c6 avg_logFC (A6 vs UT): −1.586
Akr1c14 avg_logFC (A6 vs UT): −0.5186
Akr1c14 pct.1 (A6 vs UT): 0.413
Akr1c20 avg_logFC (A6 vs UT): −0.5542
Akr1d1 avg_logFC (A6 vs UT): −0.2789
Akr1d1 pct.1 (A6 vs UT): 0.332
Akr1e1 A6logFC (A6 vs UT): −0.2582
Alad avg_logFC (A6 vs UT): −0.4206
Alad pct.1 (A6 vs UT): 0.286
Alb avg_logFC (A6 vs UT): 0.4203
Alcam A6logFC (A6 vs UT): 0.3238
Alcam avg_logFC (A6 vs UT): 0.3238
Alcam pct.1 (A6 vs UT): 0.396
Aldh1a1 avg_logFC (A6 vs UT): −0.4788
Aldh3a2 avg_logFC (A6 vs UT): −0.8342
Aldh4a1 A6logFC (A6 vs UT): −0.2907
Aldh4a1 avg_logFC (A6 vs UT): −0.2907
Aldh4a1 pct.1 (A6 vs UT): 0.425
Aldh8a1 avg_logFC (A6 vs UT): −0.6837
Aldob avg_logFC (A6 vs UT): 0.3153
Aldob pct.1 (A6 vs UT): 0.998
Amacr avg_logFC (A6 vs UT): −0.4136
Amacr pct.1 (A6 vs UT): 0.294
Anapc13 A6logFC (A6 vs UT): −0.3642
Ang avg_logFC (A6 vs UT): −0.6629
Anxa5 A6logFC (A6 vs UT): 0.3654
Apoa2 avg_logFC (A6 vs UT): −0.5428
Apoa4 avg_logFC (A6 vs UT): 1.368
Apob avg_logFC (A6 vs UT): 0.5802
Apobec1 avg_logFC (A6 vs UT): 0.3051
Apobec1 pct.1 (A6 vs UT): 0.239
Apoc1 avg_logFC (A6 vs UT): −0.8713
Apoc3 avg_logFC (A6 vs UT): −0.7688
Apoe avg_logFC (A6 vs UT): −0.369
Apof A6logFC (A6 vs UT): −0.2522
Apof avg_logFC (A6 vs UT): −0.2522
Apof pct.1 (A6 vs UT): 0.759
Apoh avg_logFC (A6 vs UT): −0.2623
Apoh pct.1 (A6 vs UT): 0.924
Apol7a avg_logFC (A6 vs UT): −0.4923
App avg_logFC (A6 vs UT): 0.3618
App pct.1 (A6 vs UT): 0.315
Aqp9 A6logFC (A6 vs UT): −0.3109
Arg1 avg_logFC (A6 vs UT): 0.3179
Arg1 pct.1 (A6 vs UT): 0.983
Arhgap5 avg_logFC (A6 vs UT): 0.264
Arhgap5 pct.1 (A6 vs UT): 0.506
Arhgdia A6logFC (A6 vs UT): 0.2563
Arhgdia avg_logFC (A6 vs UT): 0.2563
Arhgdia pct.1 (A6 vs UT): 0.317
Arhgef12 avg_logFC (A6 vs UT): 0.5908
Arl4d avg_logFC (A6 vs UT): −0.5072
Arpc1b A6logFC (A6 vs UT): 0.2597
Arpc1b avg_logFC (A6 vs UT): 0.2597
Arpc1b pct.1 (A6 vs UT): 0.263
Asgr1 avg_logFC (A6 vs UT): −0.3857
Asgr1 pct.1 (A6 vs UT): 0.656
Ash1l avg_logFC (A6 vs UT): 0.2657
Ash1l pct.1 (A6 vs UT): 0.301
